Values joined by “and” are separate entries in the source; they are usually repeats but may differ in a detail not shown here. Equal entries are not always repeated. Where two headings read alike, the source gives them in different places.
What was measured:
Assay in all cases: Chemosensitivity, 96 h continuous exposure, MTT assay
Type in all cases: cell-based, human
PSN1 = system: PSN1
How it was run: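 H460 lung and PSN1 pancreatic carcinoma lines, grown in RPMI-1640 with 10% FBS, were plated at 2 × 10^3 cells/well, dosed across a concentration range for 96 h, then given MTT for 4 h. Formazan absorbance at 540 nm gave IC50 values.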

DLD-1 = system: DLD-1
How it was run: (§1)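 Cells seeded at 2 × 10^3/well (GBM1 3 × 10^3/well) and left overnight at 37 °C, then exposed continuously for 96 h to a range of compound concentrations (final DMSO 0.2%). Viability read by MTT, absorbance at 540 nm; IC50 taken from dose-response curves as concentration reducing cell growth by 50%.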

MiaPaCa2 = system: MiaPaCa2
How it was run: as §1

BxPC3 = system: BxPC3
How it was run: as §1

A549 = system: A549
How it was run: as §1

ARPE-19 non-cancer cells = system: ARPE-19 non-cancer cells
How it was run: as §1

HCT116 p53+/+ = system: HCT116 p53+/+
How it was run: as §1

SMILES: O=S(=O)(O)O.[Zn+2].[Zn+2].[Zn+2].c1ccc(-c2csc(NCCN(CCNc3nc(-c4ccccn4)cs3)CCNc3nc(-c4ccccn4)cs3)n2)nc1.c1ccc(-c2csc(NCCN(CCNc3nc(-c4ccccn4)cs3)CCNc3nc(-c4ccccn4)cs3)n2)nc1 [[L2Zn3(SO4)]4+]
- Selectivity index (ARPE19) (PSN1; IC50 ARPE-19 / IC50 PSN1): 748.98
- Selectivity index (MCF10A) (PSN1; IC50 MCF10A / IC50 PSN1): 67.38
- IC50 (PSN1; PSN1, mean of replicates, read-out: Mean IC50): 226 nM
- IC50 (PSN1; PSN1, read-out: Mean IC50 values): 226 nM
- IC50 (PSN1; PSN1, single replicate, read-out: IC50 values for each replicate): 217 nM and 199 nM and 261 nM
- activity relative to [L2Zn3(PO4)]3+ or [L2Zn3]6+ (PSN1; PSN1 cell line, anion pre-encapsulated): significantly more active
- Relative potency (+ anion to no anion), Ratio + anion:no anion (PSN1; ratio of IC50, PSN1): 0.05
- Selectivity indices relative to ARPE-19, Ratio + anion:no anion (PSN1; ratio of SI (ARPE-19), PSN1): 21.164
- Selectivity indices relative to MCF10A, Ratio + anion:no anion (PSN1; ratio of SI (MCF 10A), PSN1): 1.852
- IC50 (DLD-1; DLD-1, mean of replicates, read-out: Mean IC50): 338 nM
- IC50 (DLD-1; DLD-1, read-out: Mean IC50 values): 338 nM
- Selectivity index (ARPE19) (DLD-1; IC50 ARPE-19 / IC50 DLD-1): 500.80
- Selectivity index (MCF10A) (DLD-1; IC50 MCF10A / IC50 DLD-1): 45.05
- Relative potency (+ anion to no anion), Ratio + anion:no anion (DLD-1; ratio of IC50, DLD-1): 1.99
- Selectivity indices relative to ARPE-19, Ratio + anion:no anion (DLD-1; ratio of SI (ARPE-19), DLD-1): 0.541
- Selectivity indices relative to MCF10A, Ratio + anion:no anion (DLD-1; ratio of SI (MCF 10A), DLD-1): 0.047
- Selectivity index (ARPE19) (MiaPaCa2; IC50 ARPE-19 / IC50 MiaPaCa2): 3.29
- Selectivity index (MCF10A) (MiaPaCa2; IC50 MCF10A / IC50 MiaPaCa2): 0.30
- IC50 (MiaPaCa2; MiaPaCa2, mean of replicates, read-out: Mean IC50): 51500 nM
- IC50 (MiaPaCa2; MiaPaCa2, read-out: Mean IC50 values): 51500 nM
- IC50 (MiaPaCa2; MiaPaCa2, single replicate, read-out: IC50 values for each replicate): 52600 nM and 36700 nM and 60800 nM and 55800 nM
- Relative potency (+ anion to no anion), Ratio + anion:no anion (MiaPaCa2; ratio of IC50, MiaPaCa2): 0.87
- Selectivity indices relative to ARPE-19, Ratio + anion:no anion (MiaPaCa2; ratio of SI (ARPE-19), MiaPaCa2): 1.236
- Selectivity indices relative to MCF10A, Ratio + anion:no anion (MiaPaCa2; ratio of SI (MCF 10A), MiaPaCa2): 0.108
- IC50 (BxPC3; BXPC3, mean of replicates, read-out: Mean IC50): 599 nM
- IC50 (BxPC3; BXPC3, read-out: Mean IC50 values): 599 nM
- IC50 (BxPC3; BXPC3, single replicate, read-out: IC50 values for each replicate): 668 nM and 428 nM and 705 nM and 728 nM and 465 nM
- Selectivity index (ARPE19) (BxPC3; IC50 ARPE-19 / IC50 BXPC3): 282.59
- Selectivity index (MCF10A) (BxPC3; IC50 MCF10A / IC50 BXPC3): 25.42
- Relative potency (+ anion to no anion), Ratio + anion:no anion (BxPC3; ratio of IC50, BXPC3): 1.87
- Selectivity indices relative to ARPE-19, Ratio + anion:no anion (BxPC3; ratio of SI (ARPE-19), BXPC3): 0.575
- Selectivity indices relative to MCF10A, Ratio + anion:no anion (BxPC3; ratio of SI (MCF 10A), BXPC3): 0.050
- IC50 (A549; A549, mean of replicates, read-out: Mean IC50): 582 nM
- IC50 (A549; A549, read-out: Mean IC50 values): 582 nM
- IC50 (A549; A549, single replicate, read-out: IC50 values for each replicate): 263 nM and 588 nM and 773 nM and 704 nM
- Selectivity index (ARPE19) (A549; IC50 ARPE-19 / IC50 A549): 290.84
- Selectivity index (MCF10A) (A549; IC50 MCF10A / IC50 A549): 26.16
- Relative potency (+ anion to no anion), Ratio + anion:no anion (A549; ratio of IC50, A549): 1.44
- Selectivity indices relative to ARPE-19, Ratio + anion:no anion (A549; ratio of SI (ARPE-19), A549): 0.745
- Selectivity indices relative to MCF10A, Ratio + anion:no anion (A549; ratio of SI (MCF 10A), A549): 0.065
- IC50 (ARPE-19 non-cancer cells; ARPE-19, mean of replicates, read-out: Mean IC50): 169000 nM
- IC50 (ARPE-19 non-cancer cells; ARPE-19, single replicate, read-out: IC50 values for each replicate): 182000 nM and 150000 nM and 176000 nM
- IC50 (ARPE-19 non-cancer cells; ARPE-19 non-cancer, read-out: Mean IC50 values): 169000 nM
- Relative potency (+ anion to no anion), Ratio + anion:no anion (ARPE-19 non-cancer cells; ratio of IC50, ARPE-19): 1.08
- IC50 (HCT116 p53+/+; HCT116 p53+/+, mean of replicates, read-out: Mean IC50): 66 nM
- IC50 (HCT116 p53+/+; HCT116 p53+/+, read-out: Mean IC50 values): 66 nM
- IC50 (HCT116 p53+/+; HCT116 p53+/+, single replicate, read-out: IC50 values for each replicate): 63 nM and 74 nM and 62 nM
- Selectivity index (ARPE19) (HCT116 p53+/+; IC50 ARPE-19 / IC50 HCT116 p53+/+): 2564.70
- Selectivity index (MCF10A) (HCT116 p53+/+; IC50 MCF10A / IC50 HCT116 p53+/+): 230.73
- Relative potency (+ anion to no anion), Ratio + anion:no anion (HCT116 p53+/+; ratio of IC50, HCT116 p53+/+): 0.14
- Selectivity indices relative to ARPE-19, Ratio + anion:no anion (HCT116 p53+/+; ratio of SI (ARPE-19), HCT116 p53+/+): 7.600
- Selectivity indices relative to MCF10A, Ratio + anion:no anion (HCT116 p53+/+; ratio of SI (MCF 10A), HCT116 p53+/+): 0.665

Reference: article PMC8222254, “Self-assembly of an anion receptor with metal-dependent kinase inhibition and potent in vitro anti-cancer properties” (Nature Communications, 2021)
